Results: US20080300263A1, “Pyrazolo [1,5-a] pyrimidine compounds and pharmaceutical compositions containing them” (EiRx Therapeutics plc, priority 2005, published 2008)
Where two headings read alike, the source gives them in different places.

Tests used:
[1] = tested on: breast cancer cell line MCF7; assay: EC50 titration, Alamar Blue, adherent cells; type: cell-based; details: Homo sapiens, 72 h
Procedure: (§1) On the day of the assay compounds are used to prepare dilution series on Titration Plates which are plated at ten times their final screening concentration in 10 μl aliquots.
(§2) For adherent cell lines plated 24 hours previously, a 90 μl volume of the appropriate cell culture medium is then added to each well of the Titration Plates and mixed by repeated aspiration/dispensing, thus taking the compounds to their final test concentration. Once the Titration Plates have been prepared the media is removed from all wells of the cell culture plate and the contents of the Titration Plates are then transferred to the appropriate wells of their relevant Test Plates and incubated for 72 h at 37° C. and 5% CO2 after which time they are assayed by Alamar Blue. Using a combination of Microsoft Excel and Graph Pad Prism, EC50s are determined.
(§3) The EC50 values are calculated using the values obtained from the Alamar Blue readout which are converted into a “Percentage of the Untreated Control” and using Graph Pad Prism these values are plotted against the logarithm of the test concentration. Using a non-linear regression analysis a sigmoidal dose-response curve is generated from which the EC50 is determined.

[2] = tested on: non-transformed breast cell line MCF10A; assay: EC50 titration, Alamar Blue, adherent cells; type: cell-based; details: Homo sapiens, MCF-10A, 72 h
Procedure: as §1, §2, §3

[3] = tested on: colon cancer cell line HT29; assay: EC50 titration, Alamar Blue, adherent cells; type: cell-based; details: Homo sapiens, HT-29, 72 h
Procedure: as §1, §2, §3

[4] = tested on: HT29 Colorectal adenocarcinoma; assay: Primary high-throughput screen, Alamar Blue, adherent cells; type: cell-based; details: Homo sapiens, HT-29; compound at 10 μM, 72 h; read-out: percentage kill, HT29
Procedure: (§4) Adherent cells are plated at a pre-determined seeding density (Table 1) in flat-bottom 96 well plates 24 hours prior to drug treatment. The cell lines are plated in 100 μl volumes in each well. Cells are plated in all wells apart from those in Column 12 which contain 100 μL normal culture medium alone. These plates will be known as the Test Plates. The Test Plates are labelled with a Daughter Plate ID.
(§5) Daughter Plates containing 10 μl of a […] solution of test compound selected from among the candidate compounds stored at […] are thawed at room temperature. A 10 μL volume of 0.1% DMSO in PBS is added to all wells of Column 12 and the wells in Row A-F of Column 1. A 10 μl volume of a pre-determined concentration of the P13-Kinase inhibitor LY294002 is added to wells in Row G and H of Column 1. A 90 μl volume of the appropriate cell culture medium is then added to each well and mixed by repeated aspiration/dispensing. The compounds are at a final test concentration of 10 μM.
(§6) Once the Daughter Plates have been prepared the media is removed from all wells of the cell culture plate using an 8-Channel Vacuum Aspirator. The contents of the Daughter Plates are then transferred to the appropriate wells of their relevant Test Plates and the Test Plates are incubated for 72 h at 37° C. and 5% CO2. At the end of this period Test Plates are assayed by Alamar Blue. A 10 μl volume of Alamar Blue is added to all wells of the Test Plate. The Test Plates are incubated for […] at 37° C. and 5% CO2 and finally read using the BioTek SYNERGY plate reader (Excitation 530125 nm-Emission 590135 nm). Percentage inhibition is determined using Microsoft Excel spreadsheet calculations.
(§7) The figures appearing in the columns are the percentage kill achieved by that compound at 10 μM.

[5] = tested on: PC3 Prostate carcinoma (bone metastasis); assay: as above; type: cell-based; details: compound at 10 μM, 72 h; read-out: percentage kill, PC3
Procedure: as §4, §5, §6, §7

[6] = tested on: MCF7 Mammary gland adenocarcinoma; assay: as above; type: cell-based; details: Homo sapiens, compound at 10 μM, 72 h, read-out: percentage kill, MCF7
Procedure: as §4, §5, §6, §7

[7] = tested on: SW480 Colon adenocarcinoma (Dukes' type B); assay: as above; type: cell-based; details: Homo sapiens, compound at 10 μM, 72 h, read-out: percentage kill, SW480
Procedure: as §4, §5, §6, §7

[8] = tested on: CACO2 Colon adenocarcinoma; assay: as above; type: cell-based; details: Homo sapiens, Caco-2; compound at 10 μM, 72 h; read-out: percentage kill, CAC02
Procedure: as §4, §5, §6, §7

[9] = tested on: U1810 Non Small Cell Lung Carcinoma; assay: as above; type: cell-based; details: U-1810; compound at 10 μM, 72 h; read-out: percentage kill, U1810
Procedure: as §4, §5, §6, §7

[10] = tested on: LS123 Colon adenocarcinoma (Dukes' type B); assay: as above; type: cell-based; details: Homo sapiens, LS-123; compound at 10 μM, 72 h; read-out: percentage kill, LS123
Procedure: as §4, §5, §6, §7

[11] = tested on: A549 Non Small Cell Lung Carcinoma; assay: as above; type: cell-based; details: Homo sapiens, compound at 10 μM, 72 h, read-out: percentage kill, A549
Procedure: as §4, §5, §6, §7

[12] = tested on: NCI ADR RES Breast adenocarcinoma (pleural effusion); assay: as above; type: cell-based; details: Homo sapiens, compound at 10 μM, 72 h, read-out: percentage kill, NCI ADR RES
Procedure: as §4, §5, §6, §7

LoVo = assay: EC50 titration, Alamar Blue; type: cell-based; details: Homo sapiens
Procedure: as §1, §2, §3

HCT116 = assay: EC50 titration, Alamar Blue; type: cell-based; details: Homo sapiens, HCT-116
Procedure: as §1, §2, §3

C9M-TF1 cells [13] = assay: Primary high-throughput screen, Alamar Blue, suspension cells; type: cell-based; details: Homo sapiens, 72 h, compound at 10 μM, read-out: percentage kill, C9M
Procedure: as §5, §6
(§8) Suspension cells are split 24 hours prior to drug treatment in order to bring the cultures into the log phase of growth. On the day of the assay the cells are plated directly into the Daughter Plates at the appropriate pre-determined seeding density (Table 1) in 90 μl volumes, the concentration of the test compounds thus being reduced to 10 μM. Cells are plated in all wells apart from those in Column 12 which contain 901 normal culture medium alone. The plates are incubated for 72 h at 37° C. and 5% CO2 after which time they are assayed by Alamar Blue as per the preceding example.
as §7

[14] = tested on: FRAT2 overexpresing TF1 (FRAT2-C9M-TF1 cells); assay: as above; type: cell-based; details: Homo sapiens, compound at 10 μM, 72 h
Procedure: as §5, §6, §8, §7

FRAT2-C9M-TF1 cells = assay: EC50 titration, Alamar Blue, suspension cells; type: cell-based, Human; details: Homo sapiens, 72 h, Alamar Blue
Procedure: as §1
(§9) Suspension cells are split 24 hours prior to drug treatment in order to bring the cultures into the log phase of growth. On the day of the assay the cells are plated directly into the Titration Plates at the appropriate pre-determined seeding density (Table 1) in 90 μl volumes thus reducing the concentration of the compounds to their final test concentration. The plates are incubated for 72 hours at 37° C. and 5% CO2 after which time they are assayed by Alamar Blue.
as §3

C9M-TF1 cells [15] = assay: EC50 titration, Alamar Blue, suspension cells; type: cell-based; details: Homo sapiens, 72 h
Procedure: as §1, §9, §3

[16] = minus GMCSF, read-out: percentage kill, FRAT2−
[17] = plus GMCSF, read-out: percentage kill, FRAT2+

| Compound | EC50 [1] [µM] | EC50 [2] [µM] | EC50 [3] [µM] | inhibition at 10 µM [4] [%] | inhibition at 10 µM [5] [%] | inhibition at 10 µM [6] [%] | inhibition at 10 µM [7] [%] | inhibition at 10 µM [8] [%] | inhibition at 10 µM [9] [%] | inhibition at 10 µM [10] [%] | inhibition at 10 µM [11] [%] | inhibition at 10 µM [12] [%] | inhibition at 10 µM (C9M-TF1 cells [13]; first C9M column) [%] | inhibition at 10 µM (C9M-TF1 cells [13]; second C9M column) [%] | inhibition at 10 µM [14, 16] [%] | inhibition at 10 µM [14, 17] [%] | EC50 (FRAT2-C9M-TF1 cells; absence of growth factor) [µM] | EC50 (FRAT2-C9M-TF1 cells; presence of growth factor) [µM] | EC50 (C9M-TF1 cells [15]) [µM] | further results |
| --- | --- | --- | --- | --- | --- | --- | --- | --- | --- | --- | --- | --- | --- | --- | --- | --- | --- | --- | --- | --- |
| COc1ccc(-c2cnn3c(NCc4ccccn4)ccnc23)cc1OC [Compound 2] | 2.24 | 20.4 | 4.37 | 60 | 4 | 68 | 68 | 66 | 23 | 91 | 18 | 73 | -2 | 0 | 57 | 33 | 6.31 | 7.08 | 24 | EC50 (LoVo): 2.2 µM; EC50 (HCT116): 3 µM |
| Fc1ccccc1-c1cnn2c(NCc3ccccn3)ccnc12 [Compound 6] | 1.32 | 23.4 | 1.41 | 20 | -94 | 64 | 3 | 37 | 11 | 72 | 6 | 51 | -1 | -11 | 59 | 33 | 5.75 | 5.13 | 10 |  |
| CN(C)c1cccc(-c2cnn3c(NCc4ccccn4)ccnc23)c1 [Compound 7] | 2.34 | 11.5 | 4.07 | 40 | -16 | 68 | 44 | 32 | 18 | 82 | 5 | 63 | 9 | 23 | 53 | 27 | 6.61 | 5.01 | 20.4 |  |
| c1ccc(CNc2ccnc3c(-c4cccc5cccnc45)cnn23)nc1 [Compound 8] | 1.78 | 6.17 | 1.51 | 78 | 56 | 83 | 71 | 71 | 68 | 92 | -3 | 85 | 7 | -4 | 68 | 39 | 5.62 | 5.75 | 17.8 |  |
| COc1ccc(-c2cnn3c(NCc4ccccn4)ccnc23)cn1 [Compound 9] | 1.7 | 12.9 | 2 | 69 | 9 | 76 | 58 | 65 | 52 | 80 | 7 | 64 | 9 | -5 | 62 | 15 | 3.39 | 2.04 | 17.8 |  |
| Cc1csc(-c2cnn3c(NCc4ccccn4)ccnc23)c1 [Compound 10] | 1.86 | 20.4 | 1.78 | 68 | -45 | 77 | 51 | 25 | 16 | 89 | 8 | 52 | 14 | -8 | 71 | 16 | 5.37 | 4.68 | 22.9 |  |
